Source: patent US12257227B2, “Combination solution for treating chemotherapy refractory cancer” (1GLOBE BIOMEDICAL CO., LTD., priority 2018, dated 2025)

How the values were obtained:
[1] = system: human pancreatic adenocarcinoma (Panc-1); test: Xenograft tumor mouse model, tumor size during treatment; type: in vivo, mice; conditions: FIG. 4; 2-acetylnaphtho[2,3-b]furan-4,9-dione 100 mg/kg PO bid; gemcitabine 80 mg/kg IV q3d; mean of five tumors
Experimental: The effects of 2-acetylnaphtho[2,3-b]furan-4,9-dione, the compound of formula (I), gemcitabine, and a combination of 2-acetylnaphtho[2,3-b]furan-4,9-dione and gemcitabine were studied. Specifically, immunosuppressed mice with established human pancreatic adenocarcinoma (Panc-1) were treated with vehicle control, 2-acetylnaphtho[2,3-b]furan-4,9-dione (100 mg/kg, PO, bid), gemcitabine (Gemzar, 80 mg/kg, IV, q3d), or the combination of 2-acetylnaphtho[2,3-b]furan-4,9-dione and gemcitabine. Tumor size was evaluated periodically during treatment. Each point represents the mean±SEM of five tumors.

p-STAT3 and β-catenin = test: Immunofluorescence of cancer stem cell markers in xenograft tumors; type: in vivo, mice; conditions: FIG. 5; tumors collected 24 hours after first dose; e.g. 50 mg/kg BID oral gavage
Experimental: Detection of the effects of 2-acetylnaphtho[2,3-b]furan-4,9-dione with or without paclitaxel on cancer stem cells for cancer stem cell markers in cancer xenograft animal models.
Human cancer cells were implanted subcutaneously into the right abdomen of 5 to 7 weeks athymic nude mice. When the tumor size reaches 200 mm^3, administer 2-acetylnaphtho[2,3-b]furan-4,9-dione (for example, 50 mg/kg (BID) by oral gavage (n=3/group)), paclitaxel, or 2-acetylnaphtho[2,3-b]furan-4,9-dione combined with paclitaxel to treat animals. Tumors were collected 24 hours after the first dose.
The harvested tissues were fixed in 3.7% neutral buffered formaldehyde at 4° C. overnight. Paraffin embedding were performed. Cut those into approximately 5 microns and fix them on positively charged glass slides. After baking and deparaffinization, the slides with tumor or control tissue were incubated in 10 mM sodium citrate (pH 6.0) for 10 minutes. After antigen retrieval, use primary antibody P-STAT3 (Rabbit, Cell Signaling, 1:100), β-catenin (Mouse, Santa Cruz, 1:400) to label slides overnight at 4° C., and then use Alexa Fluor Fluorescent dye-conjugated secondary antibody (1:500, Invitrogen). After mounting, the glass slides containing DAPI (Invitrogen) with Prolong mounting medium were detected under the 20× objective lens of a Zeiss fluorescence microscope, and analyzed with Zen software.

[2] = system: advanced pancreatic cancer; test: Phase II/III open label clinical study in patients who failed previous treatments (RECIST 1.1); type: in vivo, human; conditions: all patients receiving treatment
Source text: In a phase II/III extended open label international multicenter experiment, search the effect of the compound of formula (I), 2-acetylnaphtho[2,3-b]furan-4,9-dioen combined with paclitaxel and a low dose of gemcitabine on patients with advanced pancreatic cancer who have failed previous treatments.
In the clinical study, we observed the anti-tumor activity and safety of 2-acetylnaphtho[2,3-b]furan-4,9-dione combined with paclitaxel weekly and a low dose of gemcitabine in patients with advanced pancreatic cancer who failed previous treatment. There are imaging disease progressions in patients who have received at least first-line systemic treatment in the past and failed. Previous treatments include gemcitabine-based single-agent or combination chemotherapy, and/or FOLFIRINOX/mFOLFIRINOX chemotherapy. […]
The remission and progression of the tumor were evaluated according to the RECIST 1.1 standard. […]

STAT3 pathway = conditions: according to WO2009/036059; read-out: STAT3 pathway activity, cellular IC50; cited from earlier work

| SMILES | tumor growth (tumor volume) [1] | expression (staining) of stem cell markers p-STAT3 and β-catenin (p-STAT3 and β-catenin) | adverse events related to the compound [2] | IC50 (STAT3 pathway) |
| --- | --- | --- | --- | --- |
| CC(=O)c1cc2c(o1)C(=O)c1ccccc1C2=O [2-acetylnaphtho[2,3-b]furan-4,9-dione] | showed certain effects in inhibiting tumor growth | significantly reduce the expression of stem cell markers p-STAT3 and β-catenin | mainly gastrointestinal adverse events | ~250 nM |
| Nc1ccn([C@@H]2O[C@H](CO)[C@@H](O)C2(F)F)c(=O)n1 [gemcitabine, reference compound] | showed certain effects in inhibiting tumor growth | – | – | – |
| CC(=O)O[C@H]1C(=O)[C@@]2(C)[C@H]([C@H](OC(=O)c3ccccc3)[C@]3(O)C[C@H](OC(=O)[C@H](O)[C@@H](NC(=O)c4ccccc4)c4ccccc4)C(C)=C1C3(C)C)[C@]1(OC(C)=O)CO[C@@H]1C[C@@H]2O [paclitaxel, reference compound] | – | increased staining of stem cell markers | – | – |
